In this data set the test system is P. falciparum malaria. As to the kind of experiment: Phase 1/2 open-label imatinib monotherapy trial vs standard-of-care (SOC). In kind it is in vivo, human. The procedure: Generic imatinib mesylate was purchased from TEVA Pharmaceuticals (Jerusalem, Israel) and was provided to patients in two 200 mg tablets per dose to conform with the usual quantity of imatinib indicated for treatment of chronic myelogenous leukemia. CV-Artecan, the standard-of-care (SOC) for treatment of P. falciparum malaria in Vietnam was purchased from OPC Pharmaceutical (Ho Chi Minh City, Vietnam) and was administered to patients as a tablet containing 40 mg dihydroartemisinin plus 320 mg piperaquine phosphate.
P. falciparum-infected males of age 16-55 years with no complicating co-morbidities that had not received an anti-malarial drug within the previous 4 weeks were eligible for two trials, i.e., imatinib monotherapy and imatinib plus SOC (Im+SOC) triple combination therapy. Those individuals who met eligibility criteria and provided informed written consent were enrolled in the trial.
The phase 1/2 “imatinib monotherapy trial” was an open-label trial aimed at determining the safety and tolerability of imatinib in adult male patients with uncomplicated P. falciparum malaria. Patients were randomly assigned to either a standard-of-care (SOC) control arm (n=8) in which they received 40 mg dihydroartemisinin plus 320 mg piperaquine phosphate orally twice (12 hours apart) on the first day and then once a day on the following 2 days, or an imatinib monotherapy arm (n=7) in which they received 400 mg of imatinib mesylate orally with a meal and full glass of water once a day for five days.
During both trials, patient temperatures and peripheral blood parasite levels were monitored before, during and after the trial on days 0, 1, 2, 3, 5, 7, 28, and 42. Patients were also examined for the usual symptoms of P. falciparum malaria, including fever, chills, headache, fatigue, anorexia, and mild diarrhea.
Primary endpoints for both studies were safety and tolerability. Secondary endpoints were reduction in parasitemia for the imatinib monotherapy study and both reduction in parasitemia and decline in pyrexia for the Im+SOC study. Safety and tolerability were assessed at protocol-specified time points and adverse events were classified as toxicities not normally associated with P. falciparum malaria, including edema, rashes, and severe diarrhea, etc. […] Attribution of imatinib to adverse events was assessed using a 5-point scale: not related, unlikely related, possibly related, probably related, and definitely related.
A mixed ANOVA was conducted to determine the effect of drug treatment on parasitemia and pyrexia. Post-hoc multi-comparison testing was used to determine which time points were statistically different. […] SOC treatment cohorts from each individual trial were analyzed separately. […]

Here are results for 1 molecule from US20250025461A1, “TREATMENT OF SEVERE AND UNCOMPLICATED MALARIA” (PURDUE RESEARCH FOUDATION, priority 2021, published 2025).

Structures can show the parent of a compound that is named as a salt.

In the case of `Cc1ccc(NC(=O)c2ccc(CN3CCN(C)CC3)cc2)cc1Nc1nccc(-c2cccnc2)n1` [imatinib, imatinib mesylate], the “drug-related toxicity (analyses of blood parameters and body temperatures)” value (400 mg imatinib orally once a day for five days) is reported as “no evidence of drug-related toxicity”. The “participants who experienced a rise in parasitemia and had to be transferred to SOC” value (imatinib alone, n=7) is “two of the seven”. Also, the “apparent accelerated decrease in pyrexia vs SOC (mixed ANOVA, FIG. 1D)” value (p-value=0.7029) is “did not achieve statistical significance”. Further, the “number of parasitized cells per microliter of blood (FIG. 1A)” value (peripheral blood, before, during and after treatment, n=7) was “decrease”.
